Here are results for 19 compounds from patent US10017492B2 (KANGPU BIOPHARMACEUTICALS, LTD., priority 2014, dated 2018).

Where two headings read alike, the source gives them in different places.

The subject of test [1] is Rec-1 cells (Mantle cell lymphoma cells). Kind of test: CTG cell proliferation assay, Rec-1 cells. As to conditions: Homo sapiens, Rec1, 72-120 hours, CellTiter-Glo, read-out: IC50 Value of Rec-1 Inhibition. In kind it is cell-based. On the procedure: (§1) CTG Cell Proliferation Assay
(§2) Rec-1 cells (Mantle cell lymphoma cells) (ATCC, catalog number CRL-3004), Namalwa.CSN/70 cells (Burkitt lymphoma cells) (DSMZ, catalog number ACC-70), and WSU-DLCL-2 cells (diffuse large B cell lymphoma cells) (DSMZ, catalog number ACC-575) were seeded at (5-15)×10^3 per well to a 96-well plate with transparent bottom and white wall (Corning, catalog number CLS3903) containing specific medium. The plate was placed in an incubator and incubated for 24 hours at 37° C. under 5% CO2. Compounds were prepared as 150 mM stock solutions with DMSO (Sigma, catalog number 276855), and were diluted with the medium to the desired concentration (the final concentration of DMSO was 0.2%) and then were added to each well, incubated in an incubator for 72-120 hours at 37° C. under 5% CO2. Then, 100 μl CellTiter-Glo® cell activity assay reagent (Promega, catalog number G7570) was added to each well. Mixing proceeded for 10 minutes on a shaker to induce cytolysis. The 96-well plate was placed at room temperature for 10 minutes to make the luminous signal stable. A white base film was pasted at the bottom of the culture plate. EnSpire was used to test the plate.
(In general: In ATP-based viability assays light output follows the ATP content of the culture.)

For test [2], the system named is Namalwa.CSN/70 cells (Burkitt lymphoma cells). Kind of test: CTG cell proliferation assay, Namalwa.CSN/70 cells. The class given is cell-based. The following applies: 72-120 hours, CellTiter-Glo, read-out: IC50 Value of Namalwa.CSN/70 Inhibition. On the procedure: as §1, §2
Test [3] concerns WSU-DLCL-2 cells (diffuse large B cell lymphoma cells). Kind of test: CTG cell proliferation assay, WSU-DLCL-2 cells. The class given is cell-based. The following applies: 72-120 hours, CellTiter-Glo, read-out: IC50 Value of WSU-DLCL2 Inhibition. On the procedure:
as §1, §2

Test [4] has as its system MM.1S cells (myeloma cells). Kind of test: Cell proliferation assay (MTS), MM.1S myeloma cells. In kind it is cell-based. As to conditions: Homo sapiens, MM1.S, 72 hours, read-out: IC50 values of MMIS Inhibition. On the procedure:
MM.1S cells (myeloma cells) (ATCC, catalog number CRL-2974) were seeded at 1.8×10^3 per well to a 96-well culture plate containing […] (Gibco, catalog number A10491-01), and were incubated in an incubator for 24 hours at 37° C. under 5% CO2. Compounds were prepared as 20 mM stock solutions with DMSO (Sigma, catalog number D2650), and were diluted with the medium to the desired concentration (the final concentration of DMSO was 0.5%) and then were added to each well, incubated in an incubator for 72 hours at 37° C. under 5% CO2. Then, 20 μL MTS (Promega, catalog number G3581) was added to each well, and further incubated for 1-4 hours in an incubator at 37° C. under 5% CO2. OD490 nm was detected with OD650 nm as reference. The control, a solution containing 0.5% DMSO medium, was as 0% inhibition. GraphPad Prism 5 was used, slope was allowed to change to make the dose-effect curve and IC50 values were calculated, shown in table 2 for details.

For another test, the system named is TNF-α. Kind of test: TNF-α activity inhibiting assay (LPS-stimulated peripheral blood, ELISA). The class given is cell-based, human. As to conditions: Homo sapiens, compound 100 nM, diluted peripheral blood of healthy volunteers, LPS 10 ng/mL, 6 hours, read-out: Inhibitory Rate on TNF-α (%). As to the method:
TNF-α Activity Inhibiting Assay
Peripheral blood from healthy volunteers was collected and collected with EDTA anticoagulant tubes. After being diluted 5-fold with 1640 medium (Gibco, catalog number 11875-093, USA), the blood was added to 96-well cell culture plates (Costar, catalog number 3599, USA) and then treated with 10 μL solution of the compound of general formula (I) of the present invention in DMSO (Sigma, catalog number D2650, USA). The final concentration of the compound was 100 nM, and the final concentration of DMSO was 0.2%. After incubation for 60 minutes in an incubator at 37° C. under 5% CO2, 10 μL LPS (Sigma, catalog number L-2880, USA) was added to the reaction system, and the final concentration was 10 ng/mL. After further culturing for 6 hours in the incubator at 37° C. under 5% CO2, the supernatant was collected. The content of TNF-α was determined by ELISA (BD Biosciences, catalog number 555212, USA). Absorbance was detected at OD450 nm with a microplate reader, with OD 650 nm as reference. The control, a solution containing 0.2% DMSO medium, was as 0% inhibition. Raw data and standard curves were recorded. The four-parameter drug inhibition curve was plotted by XL-fit software and the inhibition rate of each compound was calculated, as shown in Table 1.
(An ELISA detects its analyte on a solid surface through an enzyme-linked reagent.)

Where [5] appears, read: Homo sapiens, WSUDLCL2, WSU-DLCL-2 cells.

Turning to `O=C1CCC(N2Cc3c(OCc4cccc(CN5CCOCC5)c4F)cccc3C2=O)C(=O)N1` (stereo not drawn) [Compound A399, 3-(4-((2-fluoro-3-(morpholinomethyl)benzyl)oxy)-1-oxoisoindolin-2-yl)piperidine-2,6-dione], the IC50 in test [1] is less than 100 nM; in test [2] it was greater than 300000 nM; in test [3] (setting [5]), 401 to 300000 nM; in test [4], less than 300 nM. In addition, the inhibition at 0.1 µM with TNF-α is no less than 50%.

Turning to `[2H][C@]1(N2Cc3c(OCc4ccc(CN5CCOCC5)cc4F)cccc3C2=O)CCC(=O)NC1=O` [Compound A406, (S)-3-deuterium-3-(4-((2-fluoro-4-(morpholinomethyl)benzyl)oxy)-1-oxoisoindolin-2-yl)piperidine-2,6-dione], the IC50 in test [1] is less than 100 nM; in test [2] it was greater than 300000 nM; in test [3] (setting [5]) it was less than 100 nM; in test [4], less than 300 nM. The inhibition at 0.1 µM in the test with TNF-α was no less than 50%.

With `O=C1CCC(N2Cc3c(NCc4ccc(CN5CCOCC5)cc4F)cccc3C2=O)C(=O)N1` (stereo not drawn) [Compound A382], the IC50 is less than 100 nM in test [1], greater than 300000 nM in test [2], less than 100 nM in test [3] (setting [5]) and less than 300 nM in test [4]. Besides, the inhibition at 0.1 µM with TNF-α is no less than 50%.

Take `O=C1CCC(N2Cc3c(OCc4ccc(CN5CCOCC5)cc4F)cc(F)cc3C2=O)C(=O)N1` (stereo not drawn) [Compound A407]: the IC50 is less than 100 nM in test [1], greater than 300000 nM in test [2], 401 to 300000 nM in test [3] (setting [5]) and less than 300 nM in test [4]. The inhibition at 0.1 µM with TNF-α was less than 50%.

Take `Nc1cc(F)cc2c1CN([C@H]1CCC(=O)NC1=O)C2=O` [Compound I-29]: the IC50 in test [1] is less than 100 nM; in test [2], greater than 300000 nM; in test [3] (setting [5]), greater than 300000 nM; in test [4], less than 300 nM. Also, in the test with TNF-α, the inhibition at 0.1 µM was greater than 50%.

For the compound `[2H][C@]1(N2Cc3c(N)cc(F)cc3C2=O)CCC(=O)NC1=O` [Compound I-31], the IC50 in test [1] was less than 100 nM; in test [2] it was greater than 300000 nM; in test [3] (setting [5]) it was 401 to 300000 nM; in test [4] it was less than 300 nM. For the same compound, in the test with TNF-α, the inhibition at 0.1 µM was greater than 50%.

In the case of `[2H][C@@]1(N2Cc3c(N)cc(F)cc3C2=O)CCC(=O)NC1=O` [Compound I-32], the IC50 is 100 to 400 nM in test [1], greater than 300000 nM in test [2], greater than 300000 nM in test [3] (setting [5]) and no less than 300 nM in test [4]. The inhibition at 0.1 µM with TNF-α is greater than 50%.

On to `O=C1CCC(N2Cc3c(OCc4ccc(CN5CCOCC5)cc4F)cccc3C2=O)C(=O)N1` (stereo not drawn) [Compound A386, 3-(4-((2-fluoro-4-(morpholinomethyl)benzyl)oxy)-1-oxoisoindolin-2-yl)piperidine-2,6-dione], for which the IC50 is less than 100 nM in test [1], greater than 300000 nM in test [2], less than 100 nM in test [3] (setting [5]) and less than 300 nM in test [4]. Also, the inhibition at 0.1 µM with TNF-α is no less than 50%.

For the compound `Nc1cccc2c1CN(C1CCC(=O)NC1=O)C2=O` (stereo not drawn) [Lenalidomide, 3-(4-amino-1,3-dihydro-1-oxo-2H-isoindole-2-yl)-piperidine-2,6-dione, reference compound], the IC50 in test [1] is 100 to 400 nM; in test [2] it was greater than 300000 nM; in test [3] (setting [5]), greater than 300000 nM; in test [4], no less than 300 nM. In addition, the inhibition at 0.1 µM in the test on TNF-α is less than 50%.

Turning to `[2H][C@]1(N2Cc3c(NCc4cccc(OC)c4F)cccc3C2=O)CCC(=O)NC1=O` [Compound A357, (S)-3-deuterium-3-(4-((2-fluoro-3-methoxybenzyl)amino)-1-oxoisoindolin-2-yl)piperidine-2,6-dione], the IC50 is less than 100 nM in test [1], 100 to 400 nM in test [2], 401 to 300000 nM in test [3] (setting [5]) and less than 300 nM in test [4]. Also, the inhibition at 0.1 µM in the test on TNF-α is no less than 50%.

Regarding `[2H][C@]1(N2Cc3c(NCc4cccc(CN5CCOCC5)c4F)cccc3C2=O)CCC(=O)NC1=O` [Compound A400, (S)-3-deuterium-3-(4-((2-fluoro-3-(morpholinomethyl)benzyl)amino)-1-oxoisoindolin-2-yl)piperidine-2,6-dione], the IC50 in test [1] is 100 to 400 nM; in test [2], greater than 300000 nM; in test [3] (setting [5]), 401 to 300000 nM; in test [4], less than 300 nM. The inhibition at 0.1 µM in the test with TNF-α was no less than 50%.

Turning to `COc1cccc(COc2cccc3c2CN(C2CCC(=O)NC2=O)C3=O)c1F` (stereo not drawn) [Compound A334, 3-(4-((2-fluoro-3-methoxybenzyl)oxy)-1-oxoisoindolin-2-yl)piperidine-2,6-dione], the IC50 was less than 100 nM in test [1], greater than 300000 nM in test [2], greater than 300000 nM in test [3] (setting [5]) and less than 300 nM in test [4]. The inhibition at 0.1 µM in the test on TNF-α was no less than 50%.

As to `[2H]C1(N2Cc3c(OCc4ccc(CN5CC(C)OC(C)C5)cc4F)cccc3C2=O)CCC(=O)NC1=O` (stereo not drawn) [Compound A427, 3-deuterium-3-(4-((4-((2,6-dimethylmorpholino)methyl)-2-fluorobenzyl)oxy)-1-oxoisoindolin-2-yl)piperidine-2,6-dione], the IC50 in test [1] was less than 100 nM; in test [2] it was greater than 300000 nM; in test [3] (WSU-DLCL-2 cells) it was 401 to 300000 nM; in test [4] it was less than 300 nM. The inhibition at 0.1 µM in the test on TNF-α was no less than 50%.

Take `COc1ccc(COc2cccc3c2CN(C2CCC(=O)NC2=O)C3=O)c(F)c1` (stereo not drawn) [Compound A329, 3-(4-((2-fluoro-4-methoxybenzyl)oxy)-1-oxoisoindolin-2-yl)piperidine-2,6-dione]: the IC50 in test [1] is less than 100 nM; in test [2] it was 401 to 300000 nM; in test [3] (setting [5]), greater than 300000 nM; in test [4], less than 300 nM. Moreover, the inhibition at 0.1 µM in the test on TNF-α is no less than 50%.

`COc1ccc(F)c(CNc2cccc3c2CN(C2CCC(=O)NC2=O)C3=O)c1` (stereo not drawn) [Compound A195, 3-(4-((2-fluoro-5-methoxybenzyl)amino)-1-oxoisoindolin-2-yl)piperidine-2,6-dione]: the IC50 is less than 100 nM in test [1], greater than 300000 nM in test [2], greater than 300000 nM in test [3] (setting [5]) and less than 300 nM in test [4].

For the compound `Nc1cc(F)cc2c1CN([C@@H]1CCC(=O)NC1=O)C2=O` [Compound I-30], the IC50 in test [1] is less than 100 nM; in test [2], greater than 300000 nM; in test [3] (setting [5]), greater than 300000 nM; in test [4], less than 300 nM.

In the case of `O=C1CCC(N2Cc3c(NCc4cc(O)ccc4F)cccc3C2=O)C(=O)N1` (stereo not drawn) [Compound A364, 3-(4-((2-fluoro-5-hydroxybenzyl)amino)-1-oxoisoindolin-2-yl)piperidine-2,6-dione], in test [4], the IC50 is less than 300 nM. In the test on TNF-α, the inhibition at 0.1 µM is less than 50%.

On to `COc1cccc(CNc2cccc3c2CN(C2CCC(=O)NC2=O)C3=O)c1F` (stereo not drawn) [Compound A196, 3-(4-((2-fluoro-3-methoxybenzyl)amino)-1-oxoisoindolin-2-yl)piperidine-2,6-dione], for which the IC50 in test [4] was less than 300 nM. For the same compound, the inhibition at 0.1 µM in the test with TNF-α is no less than 50%.

For `O=C1CCC(N2Cc3c(OCc4cc(CN5CCOCC5)ccc4F)cccc3C2=O)C(=O)N1` (stereo not drawn) [Compound A398, 3-(4-((2-fluoro-5-(morpholinomethyl)benzyl)oxy)-1-oxoisoindolin-2-yl)-piperidine-2,6-dione], in test [4], the IC50 is less than 300 nM. The inhibition at 0.1 µM in the test on TNF-α was no less than 50%.
